Several values for one entry are separate records, joined by “and”; a condition that tells them apart may be missing. Equal entries are not always repeated.
Legend:
[1] = biological target: T1, Ralstonia sp. strain 4506 phosphite dehydrogenase, SEQ ID NO: 1, C-terminal His tag fusion (PtxD4506) (Ralstonia sp. 4506, UniProt G4XDR8); experiment: Activity of phosphite dehydrogenase protein in the presence of inhibitor; type: biochemical; conditions: 45° C., 60 minutes; for activity in the presence of inhibitor (in words): 50 μL of 40 mM inhibitor in the reaction solution; for relative value of OD340 (activity in the presence of inhibitor, control = 100): 50 μL of 40 mM inhibitor in the reaction solution (500 μL in total)
T1 sequence (G4XDR8 1-336): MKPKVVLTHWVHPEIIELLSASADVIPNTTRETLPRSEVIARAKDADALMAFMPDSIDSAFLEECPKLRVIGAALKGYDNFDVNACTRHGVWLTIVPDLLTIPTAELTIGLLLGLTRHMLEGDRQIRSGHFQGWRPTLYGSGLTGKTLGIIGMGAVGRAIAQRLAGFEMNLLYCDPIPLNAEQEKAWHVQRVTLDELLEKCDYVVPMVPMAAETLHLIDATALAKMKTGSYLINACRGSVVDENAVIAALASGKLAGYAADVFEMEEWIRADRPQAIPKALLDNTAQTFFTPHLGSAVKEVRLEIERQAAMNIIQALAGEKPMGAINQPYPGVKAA
Text: (§1) By a well-known method, the base sequence of SEQ ID NO: 2 or a phosphite dehydrogenase gene (SEQ ID NO: 4) of P stutzeri WM88 was inserted into a plasmid pET21b (produced by Novagen) (an amino acid sequence of the protein encoded by the base sequence of SEQ ID NO: 4 is shown in SEQ ID NO: 3) to prepare (i) an expression vector of a fusion protein (see “PtxD4506” in FIG. 2) in which the C-terminal of the phosphite dehydrogenase protein of SEQ ID NO: 1 is labeled with a His tag or (ii) an expression vector of a fusion protein (see “PtxDPst” in FIG. 2) in which the C-terminal of the phosphite dehydrogenase protein of P stutzeri WM88 is labeled with a His tag.
(§2) The supernatant was supplied to a HisTrap column (produced by GE Healthcare) and, in accordance with protocols attached to the HisTrap column, a fusion protein in which a His tag was connected to the C-terminal of the phosphite dehydrogenase protein of SEQ ID NO: 1 was purified.
(§3) PtxD4506 and PtxDPst, which were purified with use of the HisTrap column in [3. […] An experimental method was based on a method described in the literature “Costas et al., Journal of Biological Chemistry, 2001, 276, 17429-17436.” The experimental method is briefly described below.
(§4) A reaction solution was prepared by mixing 100 μL of 100 mM MOPS-KOH (pH 7.25), 50 μL of 10 mM NAD, 5 μL of 5 mM phosphite, 50 μL of 40 mM inhibitor of various kinds (arsenite, nitrate, sulfate, or NaCl), 294 μL of H2O, and 1 μL of 0.5 mg/mL protein-containing solution (a PtxD4506-containing solution, a PtxDPst-containing solution, or a liquid which contained no protein (negative control)).
(§5) The reaction solution was reacted for 60 minutes. Note that the reaction solution containing the PtxD4506-containing solution was reacted at 45° C., and the reaction solution containing the PtxDPst-containing solution was reacted at 30° C. Subsequently, OD340 was measured. A relative value of OD340 of each sample was calculated relative to 100 of a value of OD340 of the reaction solution containing the liquid which contained no protein (negative control). Note that each experiment was conducted 4 times or more, and an average of relative values obtained in the 4 or 5 experiments was also calculated.

[2] = biological target: T2, Pseudomonas stutzeri WM88 phosphite dehydrogenase, wild type, SEQ ID NO: 3, C-terminal His tag fusion (PtxDPst) (Stutzerimonas stutzeri, UniProt O69054); experiment: as above; type: biochemical; set-up: key to relative value of OD340 (activity in the presence of inhibitor, control = 100): OD340 relative to no-protein negative control = 100; conditions: 30° C., 60 minutes; for activity in the presence of inhibitor (in words): 50 μL of 40 mM inhibitor in the reaction solution; for relative value of OD340 (activity in the presence of inhibitor, control = 100): 50 μL of 40 mM inhibitor in the reaction solution (500 μL in total)
T2 construct: His tag (C); made in house; host or cells: E. coli Rosetta2 (DE3), plasmid pET21b
T2 sequence (O69054 1-336): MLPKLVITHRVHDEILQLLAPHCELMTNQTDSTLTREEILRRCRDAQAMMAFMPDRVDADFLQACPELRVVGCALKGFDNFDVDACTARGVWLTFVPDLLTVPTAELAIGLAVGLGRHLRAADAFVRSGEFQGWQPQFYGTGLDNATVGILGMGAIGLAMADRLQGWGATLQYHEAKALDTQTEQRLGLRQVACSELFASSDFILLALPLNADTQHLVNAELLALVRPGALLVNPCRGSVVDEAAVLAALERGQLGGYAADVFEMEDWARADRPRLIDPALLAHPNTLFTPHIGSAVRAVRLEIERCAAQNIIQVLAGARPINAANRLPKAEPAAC
Text: as §1, §2, §3, §4, §5

[3] = biological target: T1, Ralstonia sp. strain 4506 phosphite dehydrogenase, SEQ ID NO: 1, C-terminal His tag fusion (PtxD4506); experiment: Reaction kinetic analysis: NADH production rate at varied NAD+ concentration
[4] = biological target: T2, Pseudomonas stutzeri WM88 phosphite dehydrogenase, wild type, SEQ ID NO: 3, C-terminal His tag fusion (PtxDPst); experiment: as above; type: biochemical; conditions: NAD+ 0.5 μM to 200 μM, 28° C., individual experiments 1-3
Text: as §1
The supernatant was supplied to a HisTrap column (produced by GE Healthcare) and, in accordance with protocols attached to the HisTrap column, a fusion protein in which a His tag was connected to the C-terminal of the phosphite dehydrogenase protein of SEQ ID NO: 1 was purified. […]
Reaction rates of respective PtxD4506 and PtxDPst were calculated on the basis of (Reaction formula 1) shown in the section [Background Art].
Specifically, in the reaction system of (Reaction formula 1), a production rate of NADH was measured with use of 7.5 μg of each of the fusion proteins PtxD4506 and PtxDPst while a concentration of a substrate (NAD^+) was gradually changed from 0.5 μM to 200 μM. […]

[5] = pH 7.25, average of 4 or 5 experiments
[6] = pH 7.25, individual experiments 1-5
[7] = NAD+ 0.5 μM to 200 μM, 40° C., individual experiments 1-3

| SMILES | activity in the presence of inhibitor (in words) [1] | activity in the presence of inhibitor (in words) [2] | relative value of OD340 (activity in the presence of inhibitor, control = 100) [1, 5] | relative value of OD340 (activity in the presence of inhibitor, control = 100) [1, 6] | relative value of OD340 (activity in the presence of inhibitor, control = 100) [2, 5] | relative value of OD340 (activity in the presence of inhibitor, control = 100) [2, 6] | Kcat [3, 7] | Vmax [3, 7] | Vmax of PtxD4506 relative to that of PtxDPst ([3]; NAD+, PtxD4506 at 40° C., PtxDPst at 28° C.) | Kcat [4] | Vmax [4] |
| --- | --- | --- | --- | --- | --- | --- | --- | --- | --- | --- | --- |
| O=S(=O)(O)O [sulfate] | maintained in a high level | inhibited | – | – | – | – | – | – | – | – | – |
| N.N.O=S(O)O [Sulfite] | – | – | 52.5 | 53.2 and 58.8 and 57.0 and 40.9 | 14.0 | 15.4 and 15.3 and 16.2 and 9.2 | – | – | – | – | – |
| O[As](O)O [Arsenite] | maintained in a high level | inhibited | 101.6 | 102.6 and 102.2 and 101.7 and 101.3 and 100.2 | 86.6 | 82.3 and 90.4 and 88.6 and 91.4 and 90.7 | – | – | – | – | – |
| NC(=O)c1ccc[n+]([C@@H]2O[C@H](COP(=O)([O-])OP(=O)(O)OC[C@H]3O[C@@H](n4cnc5c(N)ncnc54)[C@H](O)[C@@H]3O)[C@@H](O)[C@H]2O)c1 [NAD+] | – | – | – | – | – | – | 4.262 s⁻¹ and 4.068 s⁻¹ and 3.54 s⁻¹ | 6.4 µmol/min/mg and 6.1 µmol/min/mg and 5.3 µmol/min/mg | about 1.4 times | 3.235 s⁻¹ and 2.732 s⁻¹ and 2.513 s⁻¹ | 4.9 µmol/min/mg and 4.1 µmol/min/mg and 3.8 µmol/min/mg |
| O=[N+]([O-])O [Nitrate] | maintained in a high level | inhibited | 35.7 | 29.2 and 39.6 and 40.2 and 40.3 and 29.3 | 18.3 | 15.3 and 21.8 and 20.3 and 20.1 and 14.0 | – | – | – | – | – |

From patent publication US9273290B2, “Method for producing phosphite dehydrogenase protein and use thereof” (HIROSHIMA UNIVERSITY, priority 2011, dated 2016)
